Measured values taken from patent publication US20220348558A1, “INHIBITORS OF ENCEPHALITIC ALPHAVIRUSES” (priority 2019, published 2022).

What was measured:
VEEV TC83 = test: microbe, parasite or virus in culture; type: cell-based; settings: Venezuelan equine encephalitis virus, Vero 76, 48 h, read-out: VEEV TC83 EC50 nM
WEEV California = test: microbe, parasite or virus in culture; type: cell-based; settings: Western equine encephalitis virus, Vero 76, 48 h, read-out: WEEV California EC50 nM

SMILES: COc1ccc(-n2c([C@@H]3C[C@H](C(F)(F)F)CN3)nc3c(-c4ccc(C)nc4)cc(C#N)cc3c2=O)cc1F (racemic) [Example 190, cis-(±)-3-(3-fluoro-4-methoxyphenyl)-8-(6-methylpyridin-3-yl)-4-oxo-2-((2S,4S)-4-(trifluoromethyl)pyrrolidin-2-yl)-3,4-dihydroquinazoline-6-carbonitrile]
- EC50 (VEEV TC83): 1 to 50 nM

SMILES: COc1ccc(-n2c(C3CCCN3C3CCOCC3)nc3ccc(F)c(F)c3c2=O)cc1 (stereo in doubt) [Example 29, (S)-5,6-difluoro-3-(4-methoxyphenyl)-2-(1-(tetrahydro-2H-pyran-4-yl)pyrrolidin-2-yl) quinazolin-4 (3H)-one]
- EC50 (WEEV California): > 1000 nM
- EC50 (VEEV TC83): > 1000 nM

SMILES: O=c1c2cc([N+](=O)[O-])ccc2nc(C2CCCN2)n1-c1ccccc1 (centres unmarked) [Example 1, 6-nitro-3-phenyl-2-(pyrrolidin-2-yl) quinazolin-4 (3H)-one]
- EC50 (WEEV California): 51 to 150 nM
- EC50 (VEEV TC83): 51 to 150 nM

SMILES: O=c1c2cc([N+](=O)[O-])ccc2nc([C@H]2CCCN2)n1-c1ccccc1 [Example 2, (R)-6-nitro-3-phenyl-2-(pyrrolidin-2-yl) quinazolin-4 (3H)-one]
- EC50 (WEEV California): 51 to 150 nM
- EC50 (VEEV TC83): 1 to 50 nM

SMILES: O=c1c2cc([N+](=O)[O-])ccc2nc([C@H]2CCCN2C2CCOCC2)n1-c1ccccc1 [Example 3, (R)-6-nitro-3-phenyl-2-(1-(tetrahydro-2H-pyran-4-yl)pyrrolidin-2-yl) quinazolin-4 (3H)-one]
- EC50 (WEEV California): > 1000 nM
- EC50 (VEEV TC83): 501 to 1000 nM

SMILES: CN1CCC(N2CCC[C@@H]2c2nc3ccc([N+](=O)[O-])cc3c(=O)n2-c2ccccc2)CC1 [Example 4, (R)-2-(1-(1-methylpiperidin-4-yl)pyrrolidin-2-yl)-6-nitro-3-phenylquinazolin-4 (3H)-one]
- EC50 (WEEV California): > 1000 nM
- EC50 (VEEV TC83): 151 to 500 nM

SMILES: O=c1c2cc([N+](=O)[O-])ccc2nc([C@@H]2CCCN2)n1-c1ccccc1 [Example 5, (S)-6-nitro-3-phenyl-2-(pyrrolidin-2-yl) quinazolin-4 (3H)-one]
- EC50 (WEEV California): 151 to 500 nM
- EC50 (VEEV TC83): 151 to 500 nM

SMILES: O=c1c2cc([N+](=O)[O-])ccc2nc([C@@H]2CCCN2C2CCOCC2)n1-c1ccccc1 [Example 6, (S)-6-nitro-3-phenyl-2-(1-(tetrahydro-2H-pyran-4-yl)pyrrolidin-2-yl)quinazolin-4 (3H)-one]
- EC50 (WEEV California): > 1000 nM
- EC50 (VEEV TC83): 501 to 1000 nM

SMILES: CN1CCC(N2CCC[C@H]2c2nc3ccc([N+](=O)[O-])cc3c(=O)n2-c2ccccc2)CC1 [Example 7, (S)-2-(1-(1-methylpiperidin-4-yl)pyrrolidin-2-yl)-6-nitro-3-phenylquinazolin-4 (3H)-one]
- EC50 (WEEV California): > 1000 nM
- EC50 (VEEV TC83): > 1000 nM

SMILES: COc1ccc(-n2c(C3CCCN3)nc3ccc([N+](=O)[O-])cc3c2=O)cc1 (centres unmarked) [Example 8, 3-(4-methoxyphenyl)-6-nitro-2-(pyrrolidin-2-yl) quinazolin-4 (3H)-one]
- EC50 (WEEV California): 1 to 50 nM
- EC50 (VEEV TC83): 1 to 50 nM

SMILES: COc1ccc(-n2c([C@H]3CCCN3)nc3ccc([N+](=O)[O-])cc3c2=O)cc1 [Example 9, (R)-3-(4-methoxyphenyl)-6-nitro-2-(pyrrolidin-2-yl) quinazolin-4 (3H)-one]
- EC50 (WEEV California): 1 to 50 nM
- EC50 (VEEV TC83): 1 to 50 nM

SMILES: COc1ccc(-n2c([C@H]3CCCN3C3COC3)nc3ccc([N+](=O)[O-])cc3c2=O)cc1 [Example 11, (R)-3-(4-methoxyphenyl)-6-nitro-2-(1-(oxetan-3-yl)pyrrolidin-2-yl) quinazolin-4 (3H)-one]
- EC50 (WEEV California): 501 to 1000 nM
- EC50 (VEEV TC83): 51 to 150 nM

SMILES: COc1ccc(-n2c([C@@H]3CCCN3)nc3ccc([N+](=O)[O-])cc3c2=O)cc1 [Example 12, (S)-3-(4-methoxyphenyl)-6-nitro-2-(pyrrolidin-2-yl) quinazolin-4 (3H)-one]
- EC50 (WEEV California): 151 to 500 nM
- EC50 (VEEV TC83): 1 to 50 nM

SMILES: COc1ccc(-n2c(C3C[C@@H](OC)CN3)nc3c(-c4ccc(C)nc4)cc(C#N)cc3c2=O)cc1F (stereo partly drawn) [Example 120, 3-(3-fluoro-4-methoxyphenyl)-2-((4R)-4-methoxypyrrolidin-2-yl)-8-(6-methylpyridin-3-yl)-4-oxo-3,4-dihydroquinazoline-6-carbonitrile]
- EC50 (VEEV TC83): 151 to 500 nM

SMILES: COc1ncc(-n2c(C34CC(CN3)C4)nc3c(-c4ccc(C)nc4)cc(C#N)cc3c2=O)cn1 [Example 165, 2-(2-azabicyclo[2.1.1]hexan-1-yl)-3-(2-methoxypyrimidin-5-yl)-8-(6-methylpyridin-3-yl)-4-oxo-3,4-dihydroquinazoline-6-carbonitrile]
- EC50 (VEEV TC83): > 1000 nM

SMILES: COc1c(F)cc(-n2c(C3CCCN3)nc3c(-c4ccc(C(C)=O)nc4)cc(C#N)cc3c2=O)cc1F (centres unmarked) [Example 177, 8-(6-acetylpyridin-3-yl)-3-(3,5-difluoro-4-methoxyphenyl)-4-oxo-2-(pyrrolidin-2-yl)-3,4-dihydroquinazoline-6-carbonitrile]
- EC50 (VEEV TC83): 1 to 50 nM

SMILES: COc1ccc(-n2c(C34CC(CN3)C4)nc3c(-c4ccc(C)nc4)cc(C#N)cc3c2=O)cc1F [Example 178, 2-(2-azabicyclo[2.1.1]hexan-1-yl)-3-(3-fluoro-4-methoxyphenyl)-8-(6-methylpyridin-3-yl)-4-oxo-3,4-dihydroquinazoline-6-carbonitrile]
- EC50 (VEEV TC83): 1 to 50 nM

SMILES: COc1ccc(-n2c([C@H]3CCCN3)nc3c(N4CCC(N5CCOCC5)CC4)cc(C#N)cc3c2=O)cc1F [Example 179, (R)-3-(3-fluoro-4-methoxyphenyl)-8-(4-morpholinopiperidin-1-yl)-4-oxo-2-(pyrrolidin-2-yl)-3,4-dihydroquinazoline-6-carbonitrile]
- EC50 (VEEV TC83): 1 to 50 nM

SMILES: COc1ccc(-n2c(C3CCCN3)nc3c(-c4ccc(CO)nc4)cc(C#N)cc3c2=O)cc1F (centres unmarked) [Example 181, 3-(3-fluoro-4-methoxyphenyl)-8-(6-(hydroxymethyl)pyridin-3-yl)-4-oxo-2-(pyrrolidin-2-yl)-3,4-dihydroquinazoline-6-carbonitrile]
- EC50 (VEEV TC83): 1 to 50 nM

SMILES: COc1c(F)cc(-n2c(C3CCCN3)nc3c(-c4ccc(C(C)(C)O)nc4)cc(C#N)cc3c2=O)cc1F (centres unmarked) [Example 182, 3-(3,5-difluoro-4-methoxyphenyl)-8-(6-(2-hydroxypropan-2-yl)pyridin-3-yl)-4-oxo-2-(pyrrolidin-2-yl)-3,4-dihydroquinazoline-6-carbonitrile]
- EC50 (VEEV TC83): 1 to 50 nM

SMILES: COc1ccc(-n2c([C@@H]3CC(F)(F)CN3)nc3c(-c4ccc(C)nc4)cc(C#N)cc3c2=O)cc1F [Example 183, (S)-2-(4,4-difluoropyrrolidin-2-yl)-3-(3-fluoro-4-methoxyphenyl)-8-(6-methylpyridin-3-yl)-4-oxo-3,4-dihydroquinazoline-6-carbonitrile]
- EC50 (VEEV TC83): 151 to 500 nM

SMILES: COc1ccc(-n2c(C3CCCN3)nc3c(Oc4ccc(C)nc4)cc(C#N)cc3c2=O)cc1F (centres unmarked) [Example 191, 3-(3-fluoro-4-methoxyphenyl)-8-((6-methylpyridin-3-yl)oxy)-4-oxo-2-(pyrrolidin-2-yl)-3,4-dihydroquinazoline-6-carbonitrile]
- EC50 (VEEV TC83): 1 to 50 nM

SMILES: COc1ccc(-n2c([C@@H]3C[C@@](O)(C(F)(F)F)CN3)nc3c(-c4ccc(C)nc4)cc(C#N)cc3c2=O)cc1F [Example 192, 3-(3-fluoro-4-methoxyphenyl)-2-((2S,4S)-4-hydroxy-4-(trifluoromethyl)pyrrolidin-2-yl)-8-(6-methylpyridin-3-yl)-4-oxo-3,4-dihydroquinazoline-6-carbonitrile]
- EC50 (VEEV TC83): 1 to 50 nM
